The structures appear in SMILES notation.

Experiment [1] deals with T1, FL hMALT1 enzyme (Homo sapiens, UniProt Q9UDY8).
T1 sequence (Q9UDY8 1-824): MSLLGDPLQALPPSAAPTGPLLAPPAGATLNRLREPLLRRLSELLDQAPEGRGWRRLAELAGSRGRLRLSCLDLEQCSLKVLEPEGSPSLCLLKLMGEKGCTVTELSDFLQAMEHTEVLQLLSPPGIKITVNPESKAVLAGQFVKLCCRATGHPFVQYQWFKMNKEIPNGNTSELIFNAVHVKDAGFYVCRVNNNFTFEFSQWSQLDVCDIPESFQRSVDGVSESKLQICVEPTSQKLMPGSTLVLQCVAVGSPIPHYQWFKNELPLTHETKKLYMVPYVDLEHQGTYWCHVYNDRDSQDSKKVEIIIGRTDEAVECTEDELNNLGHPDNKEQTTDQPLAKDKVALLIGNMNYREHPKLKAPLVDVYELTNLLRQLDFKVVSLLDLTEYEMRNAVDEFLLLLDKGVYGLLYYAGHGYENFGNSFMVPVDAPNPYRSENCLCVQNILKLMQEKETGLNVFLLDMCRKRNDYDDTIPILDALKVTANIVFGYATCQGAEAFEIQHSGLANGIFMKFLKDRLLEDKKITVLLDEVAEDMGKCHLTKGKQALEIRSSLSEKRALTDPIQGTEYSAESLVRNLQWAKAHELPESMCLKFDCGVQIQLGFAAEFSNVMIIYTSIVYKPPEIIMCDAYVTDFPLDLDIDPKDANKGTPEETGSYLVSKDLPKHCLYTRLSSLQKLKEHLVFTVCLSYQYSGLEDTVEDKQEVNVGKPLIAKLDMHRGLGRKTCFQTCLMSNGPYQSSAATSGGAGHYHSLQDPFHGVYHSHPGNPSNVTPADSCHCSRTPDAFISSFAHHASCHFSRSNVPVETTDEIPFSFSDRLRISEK
Nature of the experiment: biochemical.

The test system of experiment [2] is IL-2 release from stimulated Jurkat cells. Nature of the experiment: Human IL-2 Release Phenotypic Assay (Assay 3). The conditions noted are these: Jurkat cells (clone E6-1), 200 ng/mL PMA + 300 ng/mL ionomycin, IL-2 by ELISA. Type of experiment: cell-based. In a few lines:
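Jurkat E6-1 cells in RPMI1640/10% FBS were seeded at 50 000 cells/well and incubated overnight at 37° C. Half-log compound dilutions (0.5% final DMSO) were added for 30 min, then cells were stimulated with 200 ng/mL PMA + 300 ng/mL ionomycin for 48 h. IC50 came from a 4-parameter non-linear regression fit.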

As to `CN(C(=O)[C@H]1CC[C@@H](NS(C)(=O)=O)C1)[C@@H](c1ccc(N[C@H]2Cc3ccccc3C2(C)C)cn1)C(F)(F)F` [Example 221, (1S,3R)—N—((S)-1-(5-(((S)-1,1-Dimethyl-2,3-dihydro-1H-inden-2-yl)amino)pyridin-2-yl)-2,2,2-trifluoroethyl)-N-methyl-3-(methylsulfonamido)cyclopentane-1-carboxamide], the IC50 – broadly, the concentration needed to halve the response being measured – in experiment [1] amounted to 0.021 µM; in experiment [2] (Homo sapiens, Jurkat, 48 h) it was 0.23 µM.
For `CN1CCC(C(=O)N(C)[C@@H](c2ccc(NC3Cc4ccccc4C3(C)C)cn2)C(F)(F)F)CC1` (single isomer, unassigned) [Example 132], the figures for the IC50 in experiment [1] and in experiment [2] (48 hours) were 0.25 µM and 1.37 µM, respectively.
On to `CN(C(=O)C12CC(NS(C)(=O)=O)(C1)C2)[C@@H](c1ccc(N[C@H]2Cc3ccc(Cl)cc3C2)cn1)C(F)(F)F` [Example 299, N—((S)-1-(5-(((S)-5-Chloro-2,3-dihydro-1H-inden-2-yl)amino)pyridin-2-yl)-2,2,2-trifluoroethyl)-N-methyl-3-(methylsulfonamido)bicyclo[1.1.1]pentane-1-carboxamide], for which the IC50 in experiment [1] was found to be 0.094 µM; in experiment [2] (Homo sapiens, Jurkat, 48 h), 0.43 µM.
For the compound `CN(C(=O)C1CN(C(=O)C2CCOC2)C1)[C@@H](c1ccc(NC2Cc3ccc(Cl)c(Cl)c3C2)cn1)C(F)(F)F` (single isomer, unassigned) [Example 353], the IC50 in experiment [1] is 0.033 µM; in experiment [2] (48 hours) it was 0.063 µM.
With `CC(=O)N[C@@H]1CC[C@H](C(=O)N(C)[C@@H](c2ccc(N[C@H]3Cc4ccccc4C3(C)C)cn2)C(F)(F)F)C1` [Example 187, (1,3-cis)-3-Acetamido-N—((S)-1-(5-(((S)-1,1-dimethyl-2,3-dihydro-1H-inden-2-yl)amino)pyridin-2-yl)-2,2,2-trifluoroethyl)-N-methylcyclobutane-1-carboxamide], the IC50 in experiment [1] is 0.094 µM; in experiment [2] (Homo sapiens, Jurkat, 48 h), 0.45 µM.
Turning to `CN(C(=O)[C@H]1CNC(=O)C1)[C@@H](c1ccc(NC2Cc3ccc(Cl)c(F)c3C2)nc1)C(F)(F)F` (single isomer, unassigned) [Example 339], the IC50 stood at 0.024 µM in experiment [1] and 0.066 µM in experiment [2] (Homo sapiens, Jurkat, 48 h).
On the same counts, the results for `CN(C(=O)[C@H]1C[C@H](O)C1)[C@@H](c1ccc(NC2Cc3ccc(Cl)c(F)c3C2)cn1)C(F)(F)F` (single isomer, unassigned) [Example 374] are 0.05 µM and 0.23 µM.
For `CN(C(=O)C1CN(C(=O)C2CCOC2)C1)[C@@H](c1ccc(NC2Cc3ccc(Cl)c(Cl)c3C2)cn1)C(F)(F)F` (single isomer, unassigned) [Example 352], the IC50 in experiment [1] was determined as 0.046 µM; in experiment [2] (Homo sapiens, Jurkat, 48 h) it was 0.11 µM.
As to `CC(=O)N[C@H]1CC[C@@H](C(=O)N(C)[C@@H](c2ccc(N[C@H]3Cc4ccccc4C3(C)C)cn2)C(F)(F)F)C1` [Example 172, (1R,3S)-3-Acetamido-N—((S)-1-(5-(((S)-1,1-dimethyl-2,3-dihydro-1H-inden-2-yl)amino)pyridin-2-yl)-2,2,2-trifluoroethyl)-N-methylcyclopentane-1-carboxamide], the IC50 was found to be 0.071 µM in experiment [1] and 0.49 µM in experiment [2] (Homo sapiens, Jurkat, 48 h).
In the case of `CN(C(=O)C1CNC(=O)O1)[C@@H](c1ccc(N[C@@H]2Cc3ccccc3C2(C)C)cn1)C(F)(F)F` (single isomer, unassigned) [Example 111], the IC50 in experiment [1] came out at 0.052 µM; in experiment [2] (48 hours), 0.65 µM.
As for `CC(=O)N1CCC[C@H]1C(=O)N(C)[C@@H](c1ccc(N[C@H]2Cc3ccccc3C2(C)C)cn1)C(F)(F)F` (single isomer, unassigned) [Example 194], the IC50 in experiment [1] is 0.053 µM; in experiment [2] (Homo sapiens, Jurkat, 48 h), 0.63 µM.
With `CN(C(=O)[C@H]1C[C@H](N(C)C)C1)[C@@H](c1ccc(NC2Cc3ccccc3C2(C)C)cn1)C(F)(F)F` (single isomer, unassigned) [Example 112], the IC50 came out at 0.23 µM in experiment [1] and 0.43 µM in experiment [2] (Homo sapiens, Jurkat, 48 h).
Turning to `CN(C(=O)[C@@H]1CNC(=O)C1)[C@@H](c1ccc(NC2Cc3ccc(Cl)c(Cl)c3C2)cn1)C(F)(F)F` (single isomer, unassigned) [Example 319], the half-maximal inhibitory concentration (IC50) was 0.024 µM in experiment [1] and 0.066 µM in experiment [2] (Homo sapiens, Jurkat, 48 h).

Source of the values: patent publication US20260184687A1, “DIHYDROINDENE DERIVATIVES AS MALT1 INHIBITORS” (C4X Discovery Limited, priority 2022, published 2026).
